From patent US10287276B2, “Heteroaryl-1,2,4-triazole and heteroaryl-tetrazole compounds for controlling ectoparasites” (Elanco Tiergesundheit AG, priority 2016, dated 2019)

Tests used:
[1] = system: Lucilla Cuprina (Australian Sheep Blowfly); experiment: Activity in vitro against Lucilla cuprina (Australian sheep blowfly), Assay B; design: species or system L. cuprina; conditions: larvae, percent mortality at 24 hours; for pest or weed control at 10 ppm: Lucilia cuprina, compound in bovine serum, read-out: efficacy (EC50)
Protocol: Activity In Vitro Against Lucilla Cuprina (Australian Sheep Blowfly)—Assay B
Compound formulated in bovine serum is dispensed into scintillation. A dental cotton roll is added to each vial to absorb the compound solution. L. cuprina larvae are added to each treatment vial. The vials are capped and held for 24 hours in an environmental chamber at appropriate temperature, humidity and light/dark cycles. Evaluations are only made at 24 hours because dead larvae after 24 hours may be cannibalized by the remaining live ones. Vials are examined for percent mortality.

[2] = system: Ctenocephalides Felis (Cat Flea); experiment: Activity in vitro against Ctenocephalides felis (cat flea), Assay B; conditions: % mortality at 48 hours post infestation; for pest or weed control at 10 ppm: Ctenocephalides felis, at 10 ppm in bovine blood, read-out: efficacy (EC50)
Protocol: Activity In Vitro Against Ctenocephalides Felis (Cat Flea)—Assay B
Test compounds are added to organic bovine blood contained in an artificial feeding container. Compounds with known insecticidal activity are included to serve as positive controls. Newly emerged unfed adult fleas from a laboratory colony are aspirated into each vial. The test cages are maintained using the artificial feeding apparatus to allow ingestion of compound. Fleas are evaluated for % mortality at 48 hours post infestation. Fleas showing normal movement and/or jumping ability are considered viable and those showing no movement are scored as dead.

[3] = system: Rhipicephalus sanguineus (Dog Tick); experiment: Activity in vitro against Rhipicephalus sanguineus (dog tick), Assay B, coated glass vials; conditions: contact with coated vials, assessment at 48 hours; for pest or weed control at 20 ppm: Rhipicephalus sanguineus, read-out: efficacy (EC50)
Protocol: Activity In Vitro Against Rhipicephalus sanguineus (Dog Tick)—Assay B
A solution of the test compounds is used to coat the inner wall of glass vials containing a filter paper on the bottom of each vial. A second filter paper is also coated and placed in the cap of the vial. Vials and caps are allowed to dry overnight. Each treated vial is infested with ticks. Contact of the ticks with residues is induced by holding the vials in a controlled environment and assessment is performed at 48 hours after application in comparison with untreated glass vials and solvent-treated glass vials.

| SMILES | pest or weed control at 10 ppm [1] [%] | pest or weed control at 10 ppm [2] [%] | pest or weed control at 20 ppm [3] [%] | EC50 [1] [ppm] | EC50 [3] [ppm] | EC50 [2] [ppm] |
| --- | --- | --- | --- | --- | --- | --- |
| CCN(C(=O)c1cc(C(F)(F)F)cc(C(F)(F)F)c1)C(C)c1ncnn1-c1ncccn1 (centres unmarked) [Example 53, N-Ethyl-N-[1-(2-pyrimidin-2-yl-1,2,4-triazol-3-yl)ethyl]-3,5-bis(trifluoromethyl)benzamide] | > 50 | > 50 |  |  |  |  |
| C[C@H](NC(=O)c1cc(C(F)(F)F)cc(C(F)(F)F)c1)c1ncnn1-c1ncc(F)cn1 [Example 69, N-[(1S)-1-[2-(5-Fluoropyrimidin-2-yl)-1,2,4-triazol-3-yl]ethyl]-3,5-bis(trifluoromethyl)benzamide] | > 50 | > 50 | > 50 |  |  |  |
| CC(c1ncnn1-c1ncccn1)N(C)C(=O)c1cc(C(F)(F)F)cc(C(F)(F)F)c1 (centres unmarked) [Example 65, N-Methyl-N-[1-(2-pyrimidin-2-yl-1,2,4-triazol-3-yl)ethyl]-3,5-bis(trifluoromethyl)benzamide] | > 50 | > 50 | > 50 |  |  |  |
| CC(c1ncnn1-c1ncccn1)N(C)C(=O)c1cc(C(N)=S)cc(C(F)(F)F)c1 (centres unmarked) [Example 72, 3-Carbamothioyl-N-methyl-N-[1-(2-pyrimidin-2-yl-1,2,4-triazol-3-yl)ethyl]-5-(trifluoromethyl)benzamide] | > 50 | > 50 |  |  |  |  |
| C[C@@H](c1ncnn1-c1ncccn1)N(CC1CC1)C(=S)c1cc(C(F)(F)F)cc(C(F)(F)F)c1 [Example 70] | > 50 | > 50 | > 50 |  |  |  |
| CC(NC(=O)c1cc(C#N)cc(C(F)(F)F)c1)c1ncnn1-c1ncccn1 (centres unmarked) [Example 57, 3-Cyano-N-[1-(2-pyrimidin-2-yl-1,2,4-triazol-3-yl)ethyl]-5-(trifluoromethyl)benzamide] | > 50 | > 50 |  |  |  |  |
| CC(NC(=O)c1cc(C(F)(F)F)cc(C(F)(F)F)c1)c1ncnn1-c1ncccn1 (centres unmarked) [Example 63, N-[1-(2-Pyrimidin-2-yl-1,2,4-triazol-3-yl)ethyl]-3,5-bis(trifluoromethyl)benzamide] | > 50 | > 50 | > 50 |  |  |  |
| CC(c1ncnn1-c1ncccn1)N(C[Si](C)(C)C)C(=O)c1cc(C(F)(F)F)cc(C(F)(F)F)c1 (centres unmarked) [Example 67, N-[1-(2-pyrimidin-2-yl-1,2,4-triazol-3-yl)ethyl]-3,5-bis(trifluoromethyl)-N-(trimethylsilylmethyl)benzamide] | > 50 | > 50 | > 50 |  |  |  |
| C[C@H](NC(=O)c1cc(C(F)(F)F)cc(C(F)(F)F)c1)c1ncnn1-c1ncccn1 [Example 66, N-[(1S)-1-(2-Pyrimidin-2-yl-1,2,4-triazol-3-yl)ethyl]-3,5-bis(trifluoromethyl)benzamide] | > 50 | > 50 |  |  |  |  |
| C#CCN(C(=O)c1cccc(C#N)c1)C(C)c1ncnn1-c1ncccn1 (centres unmarked) [Example 54, 3-Cyano-N-prop-2-ynyl-N-[1-(2-pyrimidin-2-yl-1,2,4-triazol-3-yl)ethyl]benzamide] |  | > 50 | > 50 |  |  |  |
| CC(c1ncnn1-c1ncccn1)N(CC1CC1)C(=O)c1cc(C#N)cc(C(F)(F)F)c1 (centres unmarked) [Example 50, 3-Cyano-N-(cyclopropylmethyl)-N-[1-(2-pyrimidin-2-yl-1,2,4-triazol-3-yl)ethyl]-5-(trifluoromethyl)benzamide] | > 50 | > 50 | > 50 |  |  |  |
| CC(c1ncnn1-c1ncccn1)N(CC1CC1)C(=O)c1cc(C(F)(F)F)nc(C(F)(F)F)c1 (centres unmarked) [Example 51, N-(Cyclopropylmethyl)-N-[1-(2-pyrimidin-2-yl-1,2,4-triazol-3-yl)ethyl]-2,6-bis(trifluoromethyl)pyridine-4-carboxamide] | > 50 | > 50 |  |  |  |  |
| Cc1nc(C(C)N(CC2CC2)C(=O)c2cc(C(F)(F)F)cc(C(F)(F)F)c2)n(-c2ncccn2)n1 (centres unmarked) [Example 61, N-(Cyclopropylmethyl)-N-[1-(5-methyl-2-pyrimidin-2-yl-1,2,4-triazol-3-yl)ethyl]-3,5-bis(trifluoromethyl)benzamide] | > 50 | > 50 | > 50 |  |  |  |
| CCOC(OCC)c1nc(C(C)NC(=O)c2cc(C(F)(F)F)cc(C(F)(F)F)c2)n(-c2ncccn2)n1 (centres unmarked) [Example 73, N-[1-[5-(Diethoxymethyl)-2-pyrimidin-2-yl-1,2,4-triazol-3-yl]ethyl]-3,5-bis(trifluoromethyl)benzamide] |  | > 50 | > 50 |  |  |  |
| CC(c1ncnn1-c1ncccn1)N(C)C(=O)c1cc(C#N)cc(C(F)(F)F)c1 (centres unmarked) [Example 60, 3-Cyano-N-methyl-N-[1-(2-pyrimidin-2-yl-1,2,4-triazol-3-yl)ethyl]-5-(trifluoromethyl)benzamide] | > 50 | > 50 | > 50 |  |  |  |
| CCN(C(=O)c1cc(C#N)cc(C(F)(F)F)c1)C(C)c1ncnn1-c1ncccn1 (centres unmarked) [Example 59, 3-Cyano-N-ethyl-N-[1-(2-pyrimidin-2-yl-1,2,4-triazol-3-yl)ethyl]-5-(trifluoromethyl)benzamide] | > 50 | > 50 | > 50 | 0.77 | 14 | 1.6 |
| COC(=O)c1nc(C(C)NC(=O)c2cc(C(F)(F)F)cc(C(F)(F)F)c2)n(-c2ncccn2)n1 (centres unmarked) [Example 74, Methyl 5-[1-[[3,5-bis(trifluoromethyl)benzoyl]amino]ethyl]-1-pyrimidin-2-yl-1,2,4-triazole-3-carboxylate] |  |  | > 50 |  |  |  |
| CC(c1ncnn1-c1ncccn1)N(C)C(=O)c1cccc(C#N)c1 (centres unmarked) [Example 55, 3-Cyano-N-methyl-N-[1-(2-pyrimidin-2-yl-1,2,4-triazol-3-yl)ethyl]benzamide] |  | > 50 | > 50 |  |  |  |
| C[C@@H](c1ncnn1-c1ncc(F)cn1)N(CC1CC1)C(=O)c1cc(C(F)(F)F)cc(C(F)(F)F)c1 [Example 64, N-(Cyclopropylmethyl)-N-[(1S)-1-[2-(5-fluoropyrimidin-2-yl)-1,2,4-triazol-3-yl]ethyl]-3,5-bis(trifluoromethyl)benzamide] | > 50 | > 50 |  |  |  |  |
| C[C@@H](c1ncnn1-c1ncccn1)N(C)C(=O)c1cc(C(F)(F)F)cc(C(F)(F)F)c1 [Example 75, N-Methyl-N-[(1S)-1-(2-pyrimidin-2-yl-1,2,4-triazol-3-yl)ethyl]-3,5-bis(trifluoromethyl)benzamide] | > 50 | > 50 | > 50 |  |  |  |
| C[C@H](NC(=O)c1cccc(C#N)c1)c1ncnn1-c1ncc(F)cn1 [Example 68, 3-Cyano-N-[(1S)-1-[2-(5-fluoropyrimidin-2-yl)-1,2,4-triazol-3-yl]ethyl]benzamide] | > 50 | > 50 | > 50 |  |  |  |
| CC(c1ncnn1-c1ncccn1)N(CC1CC1)C(=O)c1cc(Br)cc(C(F)(F)F)c1 (centres unmarked) [Example 62, 3-Bromo-N-(cyclopropylmethyl)-N-[1-(2-pyrimidin-2-yl-1,2,4-triazol-3-yl)ethyl]-5-(trifluoromethyl)benzamide] | > 50 |  | > 50 |  |  |  |
| CC(c1ncnn1-c1ncccn1)N(CC#N)C(=O)c1cc(C(F)(F)F)cc(C(F)(F)F)c1 (centres unmarked) [Example 56, N-(Cyanomethyl)-N-[1-(2-pyrimidin-2-yl-1,2,4-triazol-3-yl)ethyl]-3,5-bis(trifluoromethyl)benzamide] | > 50 | > 50 |  |  |  |  |
| C#CCN(C(=O)c1cc(C#N)cc(C(F)(F)F)c1)C(C)c1ncnn1-c1ncccn1 (centres unmarked) [Example 58, 3-Cyano-N-prop-2-ynyl-N-[1-(2-pyrimidin-2-yl-1,2,4-triazol-3-yl)ethyl]-5-(trifluoromethyl)benzamide] | > 50 | > 50 | > 50 |  |  |  |
